The assay concerns Rattus norvegicus. Briefly: Antiarrhythmic activity in iv dosed rat. Conditions: Heart; for minimal effective dose: read-out: MED. The assay is classed as functional.

The structures appear in SMILES notation.

Broadly, the LD50 is the dose at which mortality reaches 50%. Low readings indicate greater toxicity, high ones lower toxicity. On to `O=C1NC(c2ccccc2)=C([N+](=O)[O-])C(c2ccc(O)cc2)N1` (stereo not given), for which the median lethal dose (LD50) was above 5000 mg/kg and the minimal effective dose was determined as 35 µg/kg.
Consider `O=C1NC(c2ccccc2)=C([N+](=O)[O-])C(c2cccnc2)N1` (stereo not given), for which the median lethal dose (LD50) is above 1000 mg/kg and the minimal effective dose stood at 35 µg/kg.
`O=C1NC(c2ccccc2)=C([N+](=O)[O-])C(c2cccc([N+](=O)[O-])c2)N1` (stereo not given): the LD50 is above 1000 mg/kg and the minimal effective dose came to 0.045 µg/kg.
The like results for `O=C1NC(c2ccccc2)=C([N+](=O)[O-])C(c2cccc(F)c2)N1` (stereo not given) were, in that order, above 5000 mg/kg and 0.35 µg/kg.
Take `O=C1NC(c2ccccc2)=C([N+](=O)[O-])C(c2cccs2)N1` (stereo not given): the LD50 is above 1000 mg/kg and the minimal effective dose amounted to 3500 µg/kg.
For the compound `O=C1NC(c2ccccc2)=C([N+](=O)[O-])C(c2ccccc2)N1` (stereo not given), the LD50 is above 5000 mg/kg and the minimal effective dose is 35 µg/kg.
As usually defined, the ED50 is the dose at which the effect has come halfway, by size or by number of responders. The low end stands for greater potency, the high end for weaker potency. For the compound `COc1ccc(CCN(C)CCCC(C#N)(c2ccc(OC)c(OC)c2)C(C)C)cc1OC` (stereo not given), the ED50 turned out to be 1.1 mg/kg.
Regarding `COC(=O)C1=C(C)NC(C)=C(C(=O)OC)C1c1ccccc1[N+](=O)[O-]` [NIFEDIPINE], the LD50 amounted to 210 mg/kg and the minimal effective dose amounted to 3500 µg/kg.

Values taken from ChEMBL document CHEMBL1139651, “Antiarrhythmic activity of 4,6-di(het)aryl-5-nitro-3,4-dihydropyrimidin-(1H)-2-ones and its effects on arterial pressure in rats” (2006).
